Experimental findings from patent publication US6337341B1 (priority 1996, dated 2002) are described below.

Some results are limits rather than exact numbers.

As to `CSc1nnc(-c2snnc2C)o1`, the melting point – broadly, the temperature of the solid-liquid transition – amounted to 65 °C.

`Cc1nnsc1CS(=O)(=O)c1ccccc1` yielded a melting point of 118 °C.

`COC(=O)c1csc(-c2snnc2-c2ccccc2)n1` yielded a melting point of 124 °C.

In the case of `Cc1nnsc1-c1nnc(S)o1` [Compound No. 102, 5-(5-mercapto-1,3,4-oxadiazol-2-yl)-4-methyl-1,2,3-thiadiazole], the melting point worked out at 182 °C.

As for `Cc1nnsc1CN.Cl` [Compound No. 220, 5-aminomethyl-4-methyl-1,2,3-thiadiazole hydrochloride], the melting point is > 250 °C.

Take `COC(=O)/C=C/c1snnc1C` [Compound No. 338, methyl (E)-3-(4-methyl-1,2,3-thiadiazol-5-yl)-2-propenate]: the melting point stood at 70 °C.

With `COC(=O)/C=C\c1snnc1C` [Compound No. 341, methyl (Z)-3-(4-methyl-1,2,3-thiadiazol-5-yl)-2-propenate], the melting point lay in the range of 80 to 85 °C.
